The record followed here is patent US12319676B2, “Substituted amide compounds useful as farnesoid X receptor modulators” (BRISTOL-MYERS SQUIBB COMPANY, priority 2019, dated 2025).

The target of the test is T1, human FXR (Homo sapiens, UniProt Q96RI1).
T1 construct: expressed in transfected cells; host or cells: HEK293 cells stably carrying a 5xGal4 response element-luciferase reporter, transiently transfected with pcDNA3.1-Gal4-FXR
T1 sequence (Q96RI1 262-486 limits assumed): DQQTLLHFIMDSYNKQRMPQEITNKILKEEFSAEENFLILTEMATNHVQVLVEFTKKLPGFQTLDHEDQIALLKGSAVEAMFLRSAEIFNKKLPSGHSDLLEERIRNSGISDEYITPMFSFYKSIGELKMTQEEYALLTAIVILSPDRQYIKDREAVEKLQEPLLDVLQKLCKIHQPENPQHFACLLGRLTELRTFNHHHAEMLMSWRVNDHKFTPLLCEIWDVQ
The test can be described thus: transient human FXR/Gal4-luciferase reporter assay. The format is cell-based. As to conditions: Gal4-hFXR fusion construct, luciferase reporter in HEK293 cells; overnight incubation; response as percentage of 8 μM GW-4064 control. As to the method:
The exemplified compounds of the present invention were tested in the transient human FXR/Gal4-luciferase reporter assay, and assay results were reported in Table 1 and Examples 1 to 3 together with other analytical data. A Gal4-hFXR fusion construct reporter system was used as the primary assay to characterize compound activity. A construct including 5 copies of the Gal4 promoter response element upstream of a firefly luciferase reporter cDNA was stably expressed in HEK293 cells. This reporter cell line was maintained in Dulbecco's Modified Eagle's medium (DMEM; Gibco) supplemented with 1% penicillin-streptomycin (P/S) solution, 500 μg/mL Zeocin and 10% charcoal/dextran-treated fetal bovine serum (cs-FBS) at 37° C. in a humidified 5% CO2 atmosphere. Another plasmid was constructed in which the human cytomegalovirus promoter in the pcDNA3.1 vector directs the expression of the cDNA encoding a fusion protein comprised of the DNA binding domain from the Gal4 transcription factor fused to the ligand binding domain from human FXR. The day prior to transfection, the reporter cells in culture are detached from the plate with trypsin and plated into a T75 flask at a sufficient density to achieve approximately 90% confluence the next morning. The transfection reagents are prepared by separately diluting 25 μg of the pcDNA3.1-Gal4-FXR plasmid into 1.87 mL of Opti-MEM (Thermo-Fisher), and 40 μL of Lipofectamine 2000 (Thermo-Fisher) into 1.87 mL of Opti-MEM, and then adding the diluted DNA solution into the diluted Lipofectamine 2000 solution and incubating at room temperature for 15-20 minutes. The mixture is further diluted with 10 mL of a solution comprised of DMEM, 10% cs-FBS, and 1% P/S immediately prior to transferring to the cells. The maintenance culture media is aspirated from the cells and the final transfection mixture is added before the cells are incubated overnight at 37° C. in a humidified 5% CO2 atmosphere. This protocol can be scaled up, and the transiently transfected cells can be cryopreserved in an assay-ready format. For compound testing, 100 nL of the compounds (serial dilutions in DMSO) are dispensed with an Echo acoustic dispenser (Labcyte) into the wells of a Corning/Costar clear bottom 384-well white plate. The transfected cells are harvested, counted, and diluted such that 10-25,000 cells in 25 μL are plated into each well of the 384-well compound assay plate. The compound-treated cells are incubated overnight at 37° C. in a humidified 5% CO2 atmosphere. The next morning 25 μL of Steady-Glo (Promega) are added to each well of the plate, the mixture is incubated for 15 min. with shaking, and luminescence is measured on an Envision (Perkin Elmer) plate reader. Background counts from cells treated with DMSO alone are subtracted from all raw counts, and the corrected values are converted to a percentage of the control response attained with 8 μM GW-4064.
A general note: A reporter such as luciferase makes a cellular process visible.

Consider `CC(C)(C)c1noc(C23CCC(CN(c4cccc(C#N)c4)C(=O)[C@H]4C[C@](O)(C(F)(F)F)C4)(CC2)CC3)n1` [Example 39, (1S,3S)-N-((4-(3-(tert-butyl)-1,2,4-oxadiazol-5-yl)bicyclo[2.2.2]octan-1-yl)methyl)-N-(3-cyanophenyl)-3-hydroxy-3-(trifluoromethyl)cyclobutane-1-carboxamide], for which the EC50 – broadly, the concentration at which the effect is half-maximal – came to 568 nM. The result for `CC(C)(C)c1noc(C23CCC(CN(c4cccc(C#N)c4)C(=O)[C@H]4C[C@@](C)(O)C4)(CC2)CC3)n1` [Example 40, (1S,3S)-N-((4-(3-(tert-butyl)-1,2,4-oxadiazol-5-yl)bicyclo[2.2.2]octan-1-yl)methyl)-N-(3-cyanophenyl)-3-hydroxy-3-methylcyclobutane-1-carboxamide] reads 1260 nM; that for `CC(C)(C)c1noc(C23CCC(CN(C(=O)C4CC(F)(F)C4)c4cccc(C#N)c4)(CC2)CC3)n1` [Example 41, N-((4-(3-(tert-butyl)-1,2,4-oxadiazol-5-yl)bicyclo[2.2.2]octan-1-yl)methyl)-N-(3-cyanophenyl)-3,3-difluorocyclobutane-1-carboxamide], 171 nM; that for `CC(C)(C)c1noc(C23CCC(CN(C(=O)C4CCC(F)(F)CC4)c4cccc(C#N)c4)(CC2)CC3)n1` [Example 42, N-((4-(3-(tert-butyl)-1,2,4-oxadiazol-5-yl)bicyclo[2.2.2]octan-1-yl)methyl)-N-(3-cyanophenyl)-4,4-difluorocyclohexane-1-carboxamide], 1250 nM. The value for `CC(C)(C)c1noc(C23CCC(CN(C(=O)C45CC(F)(C4)C5)c4cccc(P(C)(C)=O)c4)(CC2)CC3)n1` [Example 43, N-((4-(3-(tert-butyl)-1,2,4-oxadiazol-5-yl)bicyclo[2.2.2]octan-1-yl)methyl)-N-(3-(dimethylphosphoryl)phenyl)-3-fluorobicyclo[1.1.1]pentane-1-carboxamide] was 4000 nM; that for `CC(C)(C)c1noc(C23CCC(CN(C(=O)C4CC(F)(F)C4)c4cccc(P(C)(C)=O)c4)(CC2)CC3)n1` [Example 44, N-((4-(3-(tert-butyl)-1,2,4-oxadiazol-5-yl)bicyclo[2.2.2]octan-1-yl)methyl)-N-(3-(dimethylphosphoryl)phenyl)-3,3-difluorocyclobutane-1-carboxamide] was 4000 nM; that for `CC(C)(C)c1noc(C23CCC(CN(c4cccc(P(C)(C)=O)c4)C(=O)[C@H]4C[C@](O)(C(F)(F)F)C4)(CC2)CC3)n1` [Example 45, (1S,3S)-N-((4-(3-(tert-butyl)-1,2,4-oxadiazol-5-yl)bicyclo[2.2.2]octan-1-yl)methyl)-N-(3-(dimethylphosphoryl)phenyl)-3-hydroxy-3-(trifluoromethyl)cyclobutane-1-carboxamide] was 4000 nM. The value for `CC(C)(C)c1noc(C23CCC(CN(C(=O)C4CCOCC4)c4cccc(P(C)(C)=O)c4)(CC2)CC3)n1` [Example 46, N-((4-(3-(tert-butyl)-1,2,4-oxadiazol-5-yl)bicyclo[2.2.2]octan-1-yl)methyl)-N-(3-(dimethylphosphoryl)phenyl)tetrahydro-2H-pyran-4-carboxamide] was 4000 nM; that for `CC(C)(C)c1noc(C23CCC(CN(C(=O)C4CCS(=O)(=O)CC4)c4cccc(P(C)(C)=O)c4)(CC2)CC3)n1` [Example 47, N-((4-(3-(tert-butyl)-1,2,4-oxadiazol-5-yl)bicyclo[2.2.2]octan-1-yl)methyl)-N-(3-(dimethylphosphoryl)phenyl)tetrahydro-2H-thiopyran-4-carboxamide 1,1-dioxide] was 4000 nM; that for `CC(F)(F)c1ccc(C23CCC(CN(C(=O)C45CC(F)(C4)C5)c4cccc(Br)c4)(CC2)CC3)nc1` [Example 48, N-(3-bromophenyl)-N-((4-(5-(1,1-difluoroethyl)pyridin-2-yl)bicyclo[2.2.2]octan-1-yl)methyl)-3-fluorobicyclo[1.1.1]pentane-1-carboxamide] was 288 nM.

Regarding `CC(F)(F)c1ccc(C23CCC(CN(C(=O)C45CC(F)(C4)C5)c4cccc(C#N)c4)(CC2)CC3)nc1` [Example 49, N-(3-cyanophenyl)-N-((4-(5-(1,1-difluoroethyl)pyridin-2-yl)bicyclo[2.2.2]octan-1-yl)methyl)-3-fluorobicyclo[1.1.1]pentane-1-carboxamide], the response was half-maximal at 327 nM (EC50). Turning to `CC(F)(F)c1ccc(C23CCC(CN(c4cccc(C#N)c4)C(=O)[C@H]4C[C@@](C)(O)C4)(CC2)CC3)nc1` [Example 50, (1S,3S)-N-(3-cyanophenyl)-N-((4-(5-(1,1-difluoroethyl)pyridin-2-yl)bicyclo[2.2.2]octan-1-yl)methyl)-3-hydroxy-3-methylcyclobutane-1-carboxamide], the response was half-maximal at 1190 nM (EC50). The result for `CC(F)(F)c1ccc(C23CCC(CN(c4cccc(C#N)c4)C(=O)[C@H]4C[C@](O)(C(F)(F)F)C4)(CC2)CC3)nc1` [Example 51, (1S,3S)-N-(3-cyanophenyl)-N-((4-(5-(1,1-difluoroethyl)pyridin-2-yl)bicyclo[2.2.2]octan-1-yl)methyl)-3-hydroxy-3-(trifluoromethyl)cyclobutane-1-carboxamide] reads 1330 nM; that for `CCOc1cccc(N(CC23CCC(c4nc(C5CC5)no4)(CC2)CC3)C(=O)C23CC(F)(C2)C3)c1` [Example 52, N-((4-(3-cyclopropyl-1,2,4-oxadiazol-5-yl)bicyclo[2.2.2]octan-1-yl)methyl)-N-(3-ethoxyphenyl)-3-fluorobicyclo[1.1.1]pentane-1-carboxamide], 102 nM. The result for `CCOc1cccc(N(CC23CCC(c4nc(C5CC5)no4)(CC2)CC3)C(=O)C2CC(F)(F)C2)c1` [Example 53, N-((4-(3-cyclopropyl-1,2,4-oxadiazol-5-yl)bicyclo[2.2.2]octan-1-yl)methyl)-N-(3-ethoxyphenyl)-3,3-difluorocyclobutane-1-carboxamide] reads 441 nM; that for `CCOc1cccc(N(CC23CCC(c4nc(C5CC5)no4)(CC2)CC3)C(=O)[C@H]2C[C@](O)(C(F)(F)F)C2)c1` [Example 54, N-((4-(3-cyclopropyl-1,2,4-oxadiazol-5-yl)bicyclo[2.2.2]octan-1-yl)methyl)-N-(3-ethoxyphenyl)-3-hydroxy-3-(trifluoromethyl)cyclobutane-1-carboxamide], 938 nM. The result for `CCOc1cccc(N(CC23CCC(c4nc(C5CC5)no4)(CC2)CC3)C(=O)C2CCOCC2)c1` [Example 55, N-((4-(3-cyclopropyl-1,2,4-oxadiazol-5-yl)bicyclo[2.2.2]octan-1-yl)methyl)-N-(3-ethoxyphenyl)tetrahydro-2H-pyran-4-carboxamide] reads 320 nM; that for `CCOc1cccc(N(CC23CCC(c4nc(C5CC5)no4)(CC2)CC3)C(=O)C2CCS(=O)(=O)CC2)c1` [Example 56, N-((4-(3-cyclopropyl-1,2,4-oxadiazol-5-yl)bicyclo[2.2.2]octan-1-yl)methyl)-N-(3-ethoxyphenyl)tetrahydro-2H-thiopyran-4-carboxamide 1,1-dioxide], 4000 nM. For the compound `COc1cccc(N(CC23CCC(c4nc(C5CC5)no4)(CC2)CC3)C(=O)[C@H]2C[C@](O)(C(F)(F)F)C2)c1` [Example 57, (1S,3S)—N-((4-(3-cyclopropyl-1,2,4-oxadiazol-5-yl)bicyclo[2.2.2]octan-1-yl)methyl)-3-hydroxy-N-(3-methoxyphenyl)-3-(trifluoromethyl)cyclobutane-1-carboxamide], the EC50 turned out to be 304 nM.

Compound `COc1cccc(N(CC23CCC(c4nc(C5CC5)no4)(CC2)CC3)C(=O)C23CC(F)(C2)C3)c1` [Example 58, N-((4-(3-cyclopropyl-1,2,4-oxadiazol-5-yl)bicyclo[2.2.2]octan-1-yl)methyl)-3-fluoro-N-(3-methoxyphenyl)bicyclo[1.1.1]pentane-1-carboxamide] returned an EC50 of 345 nM.
